From US5922891A, “2-substituted 1,8-dihydroxy-9(10H)-anthracenone pharmaceuticals” (priority 1997, dated 1999)
pIC50: −log10 of the molar value.

Experiments:
HaCaT cells = assay: Antiproliferative activity against HaCaT cells (human keratinocyte cell line); format: cell-based; conditions: 48 h, read-out: AA IC50 (antiproliferative activity)
Protocol: HaCaT cells were grown in Dulbecco's modified Eagle's medium (DMEM, No. 041-11954A, Gibco) supplemented with 10% fetal calf serum, penicillin (100 U/mL), and streptomycin (100 μg/mL) in a humidified incubator containing 8% CO2 at 37° C. Cells (2.5·10^4 /1.1 ml per well) were seeded on 24-well multidishes and grown in DMEM. After 24 hours of growth, the medium was replaced with fresh medium and a test compound (0.1-5 μM) was added from freshly made stock solutions, which were prepared in DMSO and diluted with DMEM. The final concentration of DMSO in the culture medium was 0.2%. Controls were performed using DMSO or medium alone. Forty-eight hours after addition of a test compound to the culture, the medium was removed and each well was rinsed with phosphate-buffered saline (PBS, 100 μL). The cells were then incubated with sterile 0.5% trypsin, 0.2% EDTA in PBS for 20 minutes at 37° C. The detached cells from each well were suspended in DMEM and dispersed as single cells by gentle pipetting through an Eppendorf pipette. Cell growth was determined directly by counting the keratinocytes on a Neubauer counting chamber using phase contrast microscopy. Inhibition of cell proliferation was calculated by a comparison of the mean value of the test compound (N=3) with the control (N=6-8) activity: (1-test compound/control)×100.

[1] = Deoxyribose degradation as a measure of hydroxyl radical formation; format: biochemical; conditions: 75 μM test compound; controls < 0.1
Protocol: ^c Deoxyribose degradation as a measure of hydroxyl radical formation
Indicated values are μmoles of malondialdehyde per mmole of deoxyribos
released by 75 μM test compound (controls < 0.1).
Degradation of deoxyribose provides a measurement of the amount of hydroxyl radical formation caused by the test compounds. The assay used to determine degradation of 2-deoxy-D-ribose followed generally the procedures of Gutteridge, J. M. C., Biochem. J., 224: 761-767 (1984) and Laughton, et al., Biochem. Pharmacol., 38: 2859-2865 (1989). The following reagents were added to glass tubes in the order and at the final concentrations listed. 0.3 mL kH2 PO4 --KOH buffer, pH 7.4 (30 mM), 0.2 ml double distilled H2 O, 0.2 ml 2-deoxy-D-ribose (2 mM), 0.2 ml FeCl3.6H2 O (0.1 mM), 0.1 ml 2-substituted anthracenone ([…]). Stock solutions of each of the 2-substituted anthracenone compounds were made up fresh before use. Appropriate blanks and controls using an acetronitrile vehicle were performed.
Final reaction volumes were standardized to 1.0 ml. The reaction mixtures were incubated for 2 hours at 37° C. in a shaking water bath at 50 rpm. 1 ml of 2.8% (w/v) trichloracetic acid and 1 ml of 1% (w/v in 0.05 N NaOH) 2-thiobarbituric acid (TBA) were added, and the samples were heated at 100° C. for 15 minutes and then cooled in an ice bath (5 minutes). 2 ml of each reaction mixture was treated with 0.05 ml of 36% (w/v) HCl and 2 of 1-butanol, followed by vigorous shaking with a vortex mixer (Heidolph) for 15 seconds. The organic layer was separated by centrifugation at 3000 rpm (15 minutes) and absorbance at 532 nm was measured against butanol. Calibration was performed using a malondialdehyde (MDA) standard prepared by hydrolysis of 1,1,3,3-tetraethoxypropane (Gutteridge, J. M. C., Anal. Biochem., 69: 518-526 (1975). TBA reactive material was expressed in terms of μmol MDA per μmol deoxyribose. The results of the assay are provided in Table I.

Compound	pIC50 (HaCaT cells)	DD (deoxyribose degradation, malondialdehyde released) [1]
O=C(O)Cc1ccc2c(c1O)C(=O)c1c(O)cccc1C2 [IA, 9,10-Dihydro-1,8-dihydroxy-9-oxo-2-anthracenacetic acid, reference compound]	< 5.30	3.74 ± 0.23 μmol of MDA/mmol
O=C(Cc1ccc2c(c1O)C(=O)c1c(O)cccc1C2)NO [IC, N-Hydroxy-(9,10-dihydro-1,8-dihydroxy-9-oxo-2-anthracene)acetamide]		1.89 ± 0.14 μmol of MDA/mmol
O=C(O)CCc1ccc2c(c1O)C(=O)c1c(O)cccc1C2 [IIA, 3-(9,10-Dihydro-1,8-dihydroxy-9-oxo-2-anthracene) propionic acid, reference compound]	< 5.30	2.67 ± 0.23 μmol of MDA/mmol
O=C(CCc1ccc2c(c1O)C(=O)c1c(O)cccc1C2)NO [IIC, N-Hydroxy-3-(9,10-dihydro-1,8-dihydroxy-9-oxo-2-anthracene)propionamide]	5.89	1.67 ± 0.31 μmol of MDA/mmol
O=C(O)CCCc1ccc2c(c1O)C(=O)c1c(O)cccc1C2 [IIIA, 4-(9,10-Dihydro-1,8-dihydroxy-9-oxo-2-anthracene) butanoic acid, reference compound]	< 5.30	2.61 ± 0.38 μmol of MDA/mmol
O=C(CCCc1ccc2c(c1O)C(=O)c1c(O)cccc1C2)NO [IIIC, N-Hydroxy-4-(9,10-dihydro-1,8-dihydroxy-9-oxo-2-anthracene)butanamide]	5.82	1.46 ± 0.02 μmol of MDA/mmol
O=C1c2c(O)cccc2Cc2ccc(C(Cc3ccccc3)C(=O)O)c(O)c21 (centres unmarked) [IXA, 2-(9,10-Dihydro-1,8-dihydroxy-9-oxo-2-anthracene)-3-phenylpropionic acid]	< 5.30	3.25 ± 0.45 μmol of MDA/mmol
O=C1c2c(O)cccc2Cc2ccc(C(Cc3ccccc3)C(=O)NO)c(O)c21 (centres unmarked) [IXC, N-Hydroxy-2-(9,10-dihydro-1,8-dihydroxy-9-oxo-2-anthracene)-3-phenylpropionamide]	5.82	
CN(O)C(=O)C(Cc1ccccc1)c1ccc2c(c1O)C(=O)c1c(O)cccc1C2 (centres unmarked) [IXD, N-Hydroxy-N-methyl-2-(9,10-dihydro-1,8-dihydroxy-9-oxo-2-anthracene)-3-phenylpropionamide]	6.05	1.68 ± 0.13 μmol of MDA/mmol
CC(C(=O)O)c1ccc2c(c1O)C(=O)c1c(O)cccc1C2 (centres unmarked) [VIIA, 2-(9,10-Dihydro-1,8-dihydroxy-9-oxo-2-anthracene) propionic acid]	< 5.30	
CC(C)C(C(=O)NO)c1ccc2c(c1O)C(=O)c1c(O)cccc1C2 (centres unmarked) [VIIIC, N-Hydroxy-2-(9,10-dihydro-1,8-dihydroxy-9-oxo-2-anthracene)-3-methylbutanamide]	5.82	1.66 ± 0.08 μmol of MDA/mmol
O=C(NO)c1ccc(Cc2ccc3c(c2O)C(=O)c2c(O)cccc2C3)cc1 [XIC, N-Hydroxy-4-[(9,10-dihydro-1,8-dihydroxy-9-oxo-2-anthracene)methyl]benzamide]	5.85	
CN(O)C(=O)c1ccc(Cc2ccc3c(c2O)C(=O)c2c(O)cccc2C3)cc1 [XID, N-Hydroxy-N-methyl-4-[(9,10-dihydro-1,8-dihydroxy-9-oxo-2-anthracene)methyl]benzamide]		0.97 ± 0.03 μmol of MDA/mmol
O=C(O)c1ccc(C(=O)c2ccc3c(c2O)C(=O)c2c(O)cccc2C3)cc1 [XIIA, 4-[(9,10-Dihydro-1,8-dihydroxy-9-oxo-2-anthracene)oxomethyl]benzoic acid]	< 5.30	1.80 ± 0.14 μmol of MDA/mmol
